The source of these data is the supplement of paper PMC11368000.

For one test, the system named is 1083 (donor line of iPSC-derived cardiomyocytes). Kind of test: POD (EC10) for decrease in total cell number (cytotoxicity) vs vehicle; higher = less potent (higher point of departure). To be noted: exposure time: 90 min. On the procedure:
(§1)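 Human iPSC-derived cardiomyocytes from 16 donors were exposed for 90 min at 37 °C to each PFAS at 0.1, 1, 10 and 100 µM in 0.5% DMSO, 384-well plates. Kinetic Ca2+ flux (FLIPR) and Hoechst nuclei counts were normalised to vehicle wells and fitted with a hierarchical Bayesian Hill model to give donor-specific PODs: EC05 for beat-rate increase or decrease and for decay-to-rise ratio increase (QT proxy), EC95 for peak-frequency loss (asystole), EC10 for total cell number loss. 0.03 µM is the lower bound.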
`O=C(O)C(F)(F)C(F)(F)C(F)(F)C(F)(F)C(F)(F)C(F)(F)C(F)(F)C(F)(F)F` [Perfluorononanoic_acid] gave a POD vs vehicle of over 100 µM.

The compound `O=S(=O)([O-])C(F)(F)C(F)(F)C(F)(F)C(F)(F)F.[K+]` [Potassium_perfluorobutanesulfonate] gave a POD vs vehicle of over 100 µM.

In another test the test system is 30171 (donor line of iPSC-derived cardiomyocytes). Described as above. To be noted: exposure time: 90 min. The procedure: as §1
`NC(=O)C(F)(F)C(F)(F)C(F)(F)C(F)F` returned a POD vs vehicle of 0.93 µM.

For the compound `OCC(O)CC(F)(F)C(F)(F)C(F)(F)C(F)(F)C(F)(F)C(F)(F)C(F)(F)C(F)(F)F` (configuration not stated) [1-(Perfluorofluorooctyl)propane-2,3-diol], the POD vs vehicle is over 100 µM.

`CC(O)C(F)(F)C(F)(F)F` (configuration not stated) [1-Pentafluoroethylethanol] displayed a POD vs vehicle of over 100 µM.

`O=C(O)C(F)(F)C(F)(F)C(F)F` [2,2,3,3,4,4-Hexafluorobutanoic_acid]: the POD vs vehicle is 0.125 µM.

For `NC(O)(C(F)(F)F)C(F)(F)F` [2-Aminohexafluoropropan-2-ol], the POD vs vehicle is over 100 µM.

On to `O=C(O)CCC(F)(F)C(F)(F)C(F)(F)C(F)(F)C(F)(F)F` [2H,2H,3H,3H-Perfluorooctanoic_acid], for which the POD vs vehicle is over 100 µM.

On to `O=C(O)C=C(C(F)(F)F)C(F)(F)F` [3,3-Bis(trifluoromethyl)-2-propenoic_acid], for which the POD vs vehicle was over 100 µM.

As for `O=C(O)C=CC(F)(C(F)(F)F)C(F)(F)F` [3-(Perfluoroisopropyl)-2-propenoic_acid], the POD vs vehicle is over 100 µM.

Take `O=C(O)CCC(F)(F)C(F)(F)C(F)(F)F` [3:3 Fluorotelomer carboxylic acid]: the POD vs vehicle was over 100 µM.

`O=C(CC(=O)C(F)(F)C(F)(F)F)C(F)(F)F` [3H,3H-Perfluoro-2,4-hexanedione] had a POD vs vehicle of over 100 µM.

In turn, `O=S(=O)(O)CCC(F)(F)C(F)(F)C(F)(F)C(F)(F)F` [4:2 Fluorotelomer sulfonic acid] had a POD vs vehicle of over 100 µM.

`OCC(F)(F)C(F)(F)C(F)(F)F` [Heptafluorobutanol] showed a POD vs vehicle of over 100 µM.

For the compound `OCC(F)(F)C(F)(F)C(F)(F)CO` [Hexafluoroamylene_glycol], the POD vs vehicle is over 100 µM.

The compound `NC(=O)C(F)(F)C(F)(F)C(F)(F)C(F)(F)F` [Nonafluoropentanamide] gave a POD vs vehicle of over 100 µM.

`O=C(O)C(F)(F)OC(F)(F)C(F)(F)OC(F)(F)F` [Perfluoro-3,6-dioxaheptanoic_acid] yielded a POD vs vehicle of over 100 µM.

For the compound `O=C(O)C(F)(F)OC(F)(F)C(F)(F)OC(F)(F)C(=O)O` [Perfluoro-3,6-dioxaoctane-1,8-dioic_acid], the POD vs vehicle was over 100 µM.

Compound `O=C(O)C(F)(F)C(F)(F)C(F)(F)OC(F)(C(F)(F)F)C(F)(F)F` [Perfluoro-4-isopropoxybutanoic_acid] returned a POD vs vehicle of over 100 µM.

Compound `O=S(=O)(O)C(F)(F)C(F)(F)C(F)(F)C(F)(F)F` [Perfluorobutanesulfonic_acid] yielded a POD vs vehicle of over 100 µM.

Compound `O=C(O)C(F)(F)C(F)(F)C(F)(F)C(F)(F)C(F)(F)C(F)(F)C(F)(F)C(F)(F)F` [Perfluorononanoic_acid] yielded a POD vs vehicle of over 100 µM.

Consider `O=S(=O)([O-])C(F)(F)C(F)(F)C(F)(F)C(F)(F)F.[K+]` [Potassium_perfluorobutanesulfonate], for which the POD vs vehicle is over 100 µM.

The test system of another test is 1535 (donor line of iPSC-derived cardiomyocytes). Described as above. The conditions noted are these: exposure time: 90 min. On the procedure:
as §1
`NC(=O)C(F)(F)C(F)(F)C(F)(F)C(F)F` gave a POD vs vehicle of over 100 µM.

As for `OCC(O)CC(F)(F)C(F)(F)C(F)(F)C(F)(F)C(F)(F)C(F)(F)C(F)(F)C(F)(F)F` (configuration not stated) [1-(Perfluorofluorooctyl)propane-2,3-diol], the POD vs vehicle was over 100 µM.

For `CC(O)C(F)(F)C(F)(F)F` (configuration not stated) [1-Pentafluoroethylethanol], the POD vs vehicle is over 100 µM.

As to `O=C(O)C(F)(F)C(F)(F)C(F)F` [2,2,3,3,4,4-Hexafluorobutanoic_acid], the POD vs vehicle is over 100 µM.

For the compound `NC(O)(C(F)(F)F)C(F)(F)F` [2-Aminohexafluoropropan-2-ol], the POD vs vehicle is over 100 µM.

For `O=C(O)CCC(F)(F)C(F)(F)C(F)(F)C(F)(F)C(F)(F)F` [2H,2H,3H,3H-Perfluorooctanoic_acid], the POD vs vehicle is over 100 µM.

Consider `O=C(O)C=C(C(F)(F)F)C(F)(F)F` [3,3-Bis(trifluoromethyl)-2-propenoic_acid], for which the POD vs vehicle is over 100 µM.

`O=C(O)C=CC(F)(C(F)(F)F)C(F)(F)F` [3-(Perfluoroisopropyl)-2-propenoic_acid] registered a POD vs vehicle of over 100 µM.

`O=C(O)CCC(F)(F)C(F)(F)C(F)(F)F` [3:3 Fluorotelomer carboxylic acid] showed a POD vs vehicle of over 100 µM.

As for `O=C(CC(=O)C(F)(F)C(F)(F)F)C(F)(F)F` [3H,3H-Perfluoro-2,4-hexanedione], the POD vs vehicle is over 100 µM.

The compound `O=S(=O)(O)CCC(F)(F)C(F)(F)C(F)(F)C(F)(F)F` [4:2 Fluorotelomer sulfonic acid] had a POD vs vehicle of over 100 µM.

The compound `OCC(F)(F)C(F)(F)C(F)(F)F` [Heptafluorobutanol] registered a POD vs vehicle of over 100 µM.

`OCC(F)(F)C(F)(F)C(F)(F)CO` [Hexafluoroamylene_glycol] registered a POD vs vehicle of over 100 µM.

`NC(=O)C(F)(F)C(F)(F)C(F)(F)C(F)(F)F` [Nonafluoropentanamide] returned a POD vs vehicle of over 100 µM.

Compound `O=C(O)C(F)(F)OC(F)(F)C(F)(F)OC(F)(F)F` [Perfluoro-3,6-dioxaheptanoic_acid] yielded a POD vs vehicle of over 100 µM.

`O=C(O)C(F)(F)OC(F)(F)C(F)(F)OC(F)(F)C(=O)O` [Perfluoro-3,6-dioxaoctane-1,8-dioic_acid] displayed a POD vs vehicle of over 100 µM.

In turn, `O=C(O)C(F)(F)C(F)(F)C(F)(F)OC(F)(C(F)(F)F)C(F)(F)F` [Perfluoro-4-isopropoxybutanoic_acid] showed a POD vs vehicle of over 100 µM.

`O=S(=O)(O)C(F)(F)C(F)(F)C(F)(F)C(F)(F)F` [Perfluorobutanesulfonic_acid] came in with a POD vs vehicle of over 100 µM.

In the case of `O=C(O)C(F)(F)C(F)(F)C(F)(F)C(F)(F)C(F)(F)C(F)(F)C(F)(F)C(F)(F)F` [Perfluorononanoic_acid], the POD vs vehicle was over 100 µM.

`O=S(=O)([O-])C(F)(F)C(F)(F)C(F)(F)C(F)(F)F.[K+]` [Potassium_perfluorobutanesulfonate] displayed a POD vs vehicle of over 100 µM.

For another test, the system named is 1392 (donor line of iPSC-derived cardiomyocytes). The test is described as above. To be noted: exposure time: 90 min. The procedure:
as §1
Take `NC(=O)C(F)(F)C(F)(F)C(F)(F)C(F)F`: the POD vs vehicle is over 100 µM.

Take `OCC(O)CC(F)(F)C(F)(F)C(F)(F)C(F)(F)C(F)(F)C(F)(F)C(F)(F)C(F)(F)F` (configuration not stated) [1-(Perfluorofluorooctyl)propane-2,3-diol]: the POD vs vehicle was over 100 µM.

On to `CC(O)C(F)(F)C(F)(F)F` (configuration not stated) [1-Pentafluoroethylethanol], for which the POD vs vehicle is over 100 µM.

On to `O=C(O)C(F)(F)C(F)(F)C(F)F` [2,2,3,3,4,4-Hexafluorobutanoic_acid], for which the POD vs vehicle was over 100 µM.

The compound `NC(O)(C(F)(F)F)C(F)(F)F` [2-Aminohexafluoropropan-2-ol] gave a POD vs vehicle of over 100 µM.
